Source: patent publication US9284345B2 (priority 2007, dated 2016)
Like-named read-outs stand apart in the source and are kept apart here.

Assays:
Intact Rat = assay: In vivo activity in intact rat (organ and muscle weight)
androgen receptor = assay: Antiandrogen / SARM / androgen profile observed on structural change; conditions: structure-activity observation in estratriene derivatives
Text: Preferred positions on the steroid to this change in activities are 3, 4, 11β, 16 and 17α. […] Moreover, when we changed the 4-fluoro by a 4-chloro on EM-6583, we obtained a pure androgen (EM-5697). Similarly, when we increased the size of the chain at 17α-position on (1,4-phenylene as a spacer group), EM-8419 became a SARM. Again, when we changed the 4-fluoro by a 4-chloro on EM-8419, we obtained a pure androgen (EM-5313).
We also believed that a larger size increase could reverse the observed tendency (androgen to SARM or antiandrogen). Thus, it is not obvious to make good predictions of the biological activity of this compound family but some trends are observable.

[1] = test system: Shionogi mouse mammary carcinoma cells; assay: cells; type: cell-based; conditions: for Ki: read-out: Shionogi cells Antiandrogenic activity Ki
Human Androgen Receptor = molecular target: T1, Human Androgen Receptor (Homo sapiens, UniProt P10275); type: binding
T1 construct: expressed in transfected cells; host or cells: HEK-293 cells stably transfected with the pCMVneo-hAR plasmid (G-418 selection); cytosol used
T1 sequence (P10275 1-920): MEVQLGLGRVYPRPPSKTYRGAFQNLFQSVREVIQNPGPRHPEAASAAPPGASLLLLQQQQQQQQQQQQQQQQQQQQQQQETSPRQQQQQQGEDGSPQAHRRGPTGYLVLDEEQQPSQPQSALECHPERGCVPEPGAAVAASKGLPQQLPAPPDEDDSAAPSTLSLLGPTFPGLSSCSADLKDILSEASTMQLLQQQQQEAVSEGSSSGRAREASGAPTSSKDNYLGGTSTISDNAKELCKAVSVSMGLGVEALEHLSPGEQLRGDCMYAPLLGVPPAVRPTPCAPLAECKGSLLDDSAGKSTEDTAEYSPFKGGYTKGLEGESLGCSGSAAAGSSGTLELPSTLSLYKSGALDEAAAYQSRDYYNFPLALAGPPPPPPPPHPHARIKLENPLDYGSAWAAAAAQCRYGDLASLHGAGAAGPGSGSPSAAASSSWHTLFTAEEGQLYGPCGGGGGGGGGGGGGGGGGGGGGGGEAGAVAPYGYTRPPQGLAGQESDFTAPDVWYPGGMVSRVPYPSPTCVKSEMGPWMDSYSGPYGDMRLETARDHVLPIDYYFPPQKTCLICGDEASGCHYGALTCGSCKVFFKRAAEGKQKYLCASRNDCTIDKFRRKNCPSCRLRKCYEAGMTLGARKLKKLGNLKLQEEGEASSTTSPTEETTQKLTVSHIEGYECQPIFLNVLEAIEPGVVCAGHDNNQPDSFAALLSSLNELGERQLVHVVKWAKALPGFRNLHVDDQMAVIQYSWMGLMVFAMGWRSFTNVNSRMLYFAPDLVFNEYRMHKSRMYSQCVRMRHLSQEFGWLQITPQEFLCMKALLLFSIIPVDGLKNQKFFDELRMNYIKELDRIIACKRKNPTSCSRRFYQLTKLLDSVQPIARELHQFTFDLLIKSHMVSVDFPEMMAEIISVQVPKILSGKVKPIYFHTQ

Immature Rat CX + DHT = assay: animal or person; type: in vivo; conditions: po; for change in vivo at 0.5 mg: Rattus norvegicus, 168 h
Rat Androgen Receptor = molecular target: T2, Rat Androgen Receptor (Rattus norvegicus, UniProt P15207); assay: Androgen receptor binding assay (HAP, [3H]R1881), rat prostate cytosol
T2 construct: ventral prostates collected from 24 h-gonadectomized rats were homogenized in buffer A; from tissue; host or cells: rat ventral prostate cytosol (24 h-gonadectomized rats)
T2 sequence (P15207 1-902): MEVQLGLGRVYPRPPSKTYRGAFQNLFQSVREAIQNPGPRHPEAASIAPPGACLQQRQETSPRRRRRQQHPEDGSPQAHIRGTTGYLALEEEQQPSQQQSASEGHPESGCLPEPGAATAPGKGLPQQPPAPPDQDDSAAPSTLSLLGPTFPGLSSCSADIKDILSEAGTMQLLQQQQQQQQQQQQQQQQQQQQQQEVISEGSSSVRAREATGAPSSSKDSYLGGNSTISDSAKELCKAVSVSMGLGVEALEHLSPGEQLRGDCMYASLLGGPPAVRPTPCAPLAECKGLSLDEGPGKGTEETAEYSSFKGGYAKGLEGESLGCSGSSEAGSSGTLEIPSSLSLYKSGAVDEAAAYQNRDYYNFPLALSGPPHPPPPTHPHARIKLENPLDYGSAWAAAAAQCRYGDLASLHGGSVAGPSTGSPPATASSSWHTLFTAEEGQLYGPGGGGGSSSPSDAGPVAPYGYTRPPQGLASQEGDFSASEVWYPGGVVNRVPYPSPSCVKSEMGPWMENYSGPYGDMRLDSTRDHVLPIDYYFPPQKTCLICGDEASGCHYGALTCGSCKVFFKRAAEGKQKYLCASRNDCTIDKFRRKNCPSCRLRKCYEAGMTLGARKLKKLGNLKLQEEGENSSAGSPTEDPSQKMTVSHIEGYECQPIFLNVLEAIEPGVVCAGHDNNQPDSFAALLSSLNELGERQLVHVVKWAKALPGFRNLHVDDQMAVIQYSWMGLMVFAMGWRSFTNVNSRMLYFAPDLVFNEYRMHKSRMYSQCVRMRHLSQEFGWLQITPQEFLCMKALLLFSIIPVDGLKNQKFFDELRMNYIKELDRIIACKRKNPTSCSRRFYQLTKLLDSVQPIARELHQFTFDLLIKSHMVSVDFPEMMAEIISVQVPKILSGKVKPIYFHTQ
Method: On the morning of the binding assay, ventral prostates collected from 24 h-gonadectomized rats were homogenized in buffer A (1 g of tissue in 5 mL) and the homogenate was centrifuged as described above.
Androgen binding is measured using the hydroxylapatite (HAP) assay. In brief, the radioactive steroid [^3H]R1881 solubilized in ethanol is diluted with buffer B (10 mM Tris-HCl, 1.5 mM EDTA disodium salt, 10 mM α-monothioglycerol, pH 7.4). Aliquots of the cell or prostate cytosol preparation (0.1 ml) are then incubated with 5 nM [^3H]R1881 (0.1 ml, ˜100 000 cpm) in the presence or absence of the indicated concentrations of unlabeled compounds (0.1 ml, prepared in buffer B containing 30% ethanol) for 16-18 h at 0-4° C. Triamcinolone acetonide (TAC; 100 nM) is added to mask progesterone receptors. Unbound steroids are separated by incubation for 40 min at 0-4° C. with 0.3 ml HAP prepared in buffer P (50 mM Tris-HCl, 10 mM KH2PO4, pH 7.4). After incubation with HAP and 10 min of centrifugation at 1000×g, the pellet is washed 3 times with 1 ml of buffer P. Thereafter, the radioactivity is extracted from the pellet by incubation at room temperature for 60 min with 1 ml of ethanol. After centrifugation, the supernatant is decanted into a scintillation vial and the pellet is extracted again with ethanol. After the addition of scintillation liquid, the radioactivity is measured in a liquid scintillation counter.

[2] = test system: CX+ 4-DIONE in Mature Rat; assay: Systemic antiandrogenic activity in mature male rats; type: in vivo
in vivo = conditions: male, Sprague-Dawley, rat, in vivo, po, 0.5 mg

SMILES	In Vivo Intact Rat % change vs Intact CONT (Intact CONT = +100%; CX CONT = 0%) SZ (Intact Rat; rat, in vivo)	% of stim of basal at 10^−7M (% over basal) [1]	% of stim of basal at 10^−7 M (DHT = 100%) [1]	Human Androgen Receptor Binding RBA (%) R1881 = 100% (Human Androgen Receptor) [%]	In Vivo Anti-A Rat CX + DHT % change vs DHT (CX CONT = −100%) SV (Immature Rat CX + DHT; rat, in vivo) [%]	In Vivo Anti-A Rat CX + DHT % change vs DHT (CX CONT = −100%) VP (Immature Rat CX + DHT; rat, in vivo) [%]	In Vivo Agonist Rat CX % change vs CX (DHT CONT = +100%) Bulbo (Immature Rat CX)	In Vivo Agonist Rat CX % change vs CX (DHT CONT = +100%) SV (Immature Rat CX)	In Vivo Agonist Rat CX % change vs CX (DHT CONT = +100%) VP (Immature Rat CX)	Shionogi cells Antiandrogenic activity Ki OH-Flu/Ki compound [1]	Ki [1] [nM]	Rat Androgen Receptor Binding RBA (%) R1881 = 100% (Rat Androgen Receptor) [%]	also measured
C[C@H]1C[C@@]2(C)C(CC[C@@]2(O)Cc2cc[n+]([O-])cc2)C2CCc3c(ccc(C#N)c3F)C21 (stereo partly shown) [EM-6583]	+71 ± 16%	+138 ± 49%	+52 ± 27%	21	−75 ± 5	−46 ± 6	+93 ± 15%	+17 ± 3%	+37 ± 7%	–	–	–	In Vivo Intact Rat % change vs Intact CONT (Intact CONT = +100%; CX CONT = 0%) Bulbo (Intact Rat; 0.1 mg/rat/os/ID, bulbocavernosus muscles weight): +145 ± 46%; In Vivo Intact Rat % change vs Intact CONT (Intact CONT = +100%; CX CONT = 0%) VP (Intact Rat; 0.1 mg/rat/os/ID, prostate weight): +90 ± 2%; activity profile (antiandrogen, SARM or androgen) (androgen receptor): became a SARM; inhibition at 0.0003 µM ([1]; Mus musculus, read-out: % of inh of DHT at 10^−7 M (Basal = 100%)): 46%
CC12CCC3c4ccc(C#N)c(F)c4CCC3C1CCC2(O)Cc1cc[n+]([O-])cc1F (stereo not shown) [EM-8454]	–	–	–	~1	–	–	–	–	–	2.7	2.2	~0.3	In Vivo Agonist % Change vs CX (DHT = +100%) SV (Immature Rat CX; po): 0%; In Vivo Agonist % Change vs CX (DHT = +100%) VP (Immature Rat CX; po): 0%
Cc1c[n+]([O-])ccc1CC1(O)CCC2C3CCc4c(ccc(C#N)c4F)C3CCC21C (stereo not shown) [EM-8505]	–	–	–	~0.3	–	–	–	–	–	4.4	4.2	~0.3	–
CCC1CC2(C)C(CCC2(O)Cc2cc[n+]([O-])cc2F)C2CCc3c(ccc(C#N)c3F)C12 (stereo not shown) [EM-9017]	+57 ± 6%	+36%	+31%	139	−54 ± 2	−42 ± 2	+102 ± 12%	+22 ± 2%	+24 ± 5%	–	–	–	In Vivo Intact Rat % change vs Intact CONT (Intact CONT = +100%; CX CONT = 0%) Bulbo (Intact Rat; rat, in vivo): +154 ± 13%; In Vivo Intact Rat % change vs Intact CONT (Intact CONT = +100%; CX CONT = 0%) VP (Intact Rat; rat, in vivo): +47 ± 5%; inhibition of intact rat prostate (Intact Rat; rat, in vivo): 53±5%; inhibition of intact rat seminal vesicles (Intact Rat; rat, in vivo): 43±6%; stimulation of the bulbocavernosus muscles in intact rat (Intact Rat; rat, in vivo): 54±13%; % of inh of DHT at 10^−7 M (Basal = 100%) ([1]; 0.0003 µM): +64%; In Vivo Anti-A Rat CX + DHT % change vs DHT (CX CONT = −100%) Bulbo (Immature Rat CX + DHT; rat, in vivo): +3 ± 11%
CC(O)(CS(=O)(=O)c1ccc(F)cc1)C(=O)Nc1ccc(C#N)c(C(F)(F)F)c1 (stereo not shown) [bicalutamide]	–	–	–	–	–	–	–	–	–	–	–	–	% change vs 4-DIONE Cont (CX Cont = −100% inh) Seminal Vesicles ([2]; 1 mg/rat/per os/ID): −82 ± 9%; % change vs 4-DIONE Cont (CX Cont = −100% inh) Ventral Prostate ([2]; 1 mg/rat/per os/ID): −44 ± 7%; inhibition of prostate weight (4-dione stimulated) ([2]; 5 mg/rat): 64%; % change vs 4-DIONE Cont (CX Cont = −100% inh) Seminal Vesicles ([2]; 5 mg/rat/per os/ID): −90 ± 6%; % change vs 4-DIONE Cont (CX Cont = −100% inh) Ventral Prostate ([2]; 5 mg/rat/per os/ID): −64 ± 4%; AUC (in vivo): 8500 ± 386 ng·h/mL; change in vivo at 0.5 mg (Immature Rat CX + DHT; read-out: In Vivo Antagonist % Change vs DHT (CX = −100%) SV): -86%; change in vivo at 0.5 mg (Immature Rat CX + DHT; read-out: In Vivo Antagonist % Change vs DHT (CX = −100%) VP): -51%; In Vivo Agonist % Change vs CX (DHT = +100%) SV (Immature Rat CX; sc): (0; 0.2 mg, sc) %; In Vivo Agonist % Change vs CX (DHT = +100%) VP (Immature Rat CX; sc): (0; 0.2 mg, sc) %
